Read-outs that look alike come from different tables or passages of the source.
Assays:
[1] = system: BCC (basal cell carcinoma); test: Cell viability analysis, skin cancer BCC; type: cell-based, human; details: Homo sapiens, 72 h; BCC; repeated experiment; read-out: The results of antibiotic drug inhibiting cancer cell lines (cell viability analysis), BCC
cancer cell lines = test: Cell viability analysis (WST-1) on cancer cell lines; type: cell-based, human; details: drug 10 μM, 72 hours, WST-1; Table 3
[2] = system: MKN-45 (Gastric Adenocarcinoma); test: Cell viability analysis, gastric cancer MKN-45; type: cell-based, human; details: Homo sapiens, MKN-45, 72 h
[3] = system: HCT116 (p53+) (Colorectal Carcinoma)
[4] = system: HeLa (Cervix Adenocarcinoma); test: Cell viability analysis, cervical cancer HeLa; type: cell-based, human; details: Homo sapiens, HeLa, 72 h, HeLa
[5] = system: LoVo (Colorectal Adenocarcinoma); test: Cell viability analysis, colon cancer LoVo; type: cell-based, human; details: Homo sapiens, LoVo, 72 h
[6] = system: C-33A (Cervical carcinoma); test: Cell viability analysis, cervical cancer C-33A; type: cell-based, human; details: Homo sapiens, 72 h; C-33A; repeated experiment; read-out: The results of antibiotic drug inhibiting cancer cell lines (cell viability analysis), C-33A
[7] = system: AGS (Gastric Adenocarcinoma); test: Cell viability analysis, gastric cancer AGS; type: cell-based, human; details: Homo sapiens, 72 h
[8] = system: TSGH-8301 (Urinary Bladder Carcinoma); test: Cell viability analysis, bladder cancer TSGH-8301; type: cell-based, human; details: Homo sapiens, 72 h
[9] = system: MDA-MB-231 (Mammary Gland, Adenocarcinoma); test: Cell viability analysis, breast cancer MDA-MB-231; type: cell-based, human; details: Homo sapiens, MDA-MB-231, 72 h; MDA-MB231; repeated experiment; read-out: The results of antibiotic drug inhibiting cancer cell lines (cell viability analysis), MDA-MB231
[10] = system: MCF7 (Mammary Gland, Adenocarcinoma); test: Cell viability analysis, breast cancer MCF7; type: cell-based, human; details: Homo sapiens, MCF7, 72 h
[11] = system: SAS (Tongue squamous cell carcinoma); test: Cell viability analysis, tongue cancer SAS; type: cell-based, human; details: Homo sapiens, 72 h; SAS; repeated experiment; read-out: The results of antibiotic drug inhibiting cancer cell lines (cell viability analysis), SAS
[12] = system: HL-60 (Acute Promyelocytic Leukemia); test: Cell viability analysis, leukemia HL-60; type: cell-based, human; details: Homo sapiens, HL-60, 72 h, drug 10 μM, 72 hours, WST-1, OD450 nm; read-out: cell viability (survival rate), HL-60
[13] = system: HI650 (Lung Adenocarcinoma); test: Cell viability analysis, lung cancer HI650; type: cell-based, human; details: Homo sapiens, NCI-H1650, 72 h
NIH: OVCAR-3 = test: Cell viability analysis, ovarian cancer NIH: OVCAR-3; type: cell-based, human; details: Homo sapiens, 72 h; NIH-OVCAR-3; repeated experiment; read-out: The results of antibiotic drug inhibiting cancer cell lines (cell viability analysis), NIH-OVCAR-3
[14] = system: A549 (Lung Adenocarcinoma); test: Cell viability analysis, lung cancer A549; type: cell-based, human; details: Homo sapiens, A549, 72 h
[15] = system: Hep3B (hepatocellular carcinoma); test: Cell viability analysis, hepatic cancer Hep3B; type: cell-based, human; details: Homo sapiens, 72 h; Hep3B; repeated experiment; read-out: The results of antibiotic drug inhibiting cancer cell lines (cell viability analysis), Hep3B
TOV-21G = test: Cell viability analysis, ovarian cancer TOV-21G; type: cell-based, human; details: Homo sapiens, TOV21G, 72 h; TOV-21G; repeated experiment; read-out: The results of antibiotic drug inhibiting cancer cell lines (cell viability analysis), TOV-21G
[16] = system: 786-O (Renal adenocarcinoma); test: Cell viability analysis, renal cancer 786-O; type: cell-based, human; details: Homo sapiens, 786-0, 72 h; 786-O; repeated experiment; read-out: The results of antibiotic drug inhibiting cancer cell lines (cell viability analysis), 786-O
[17] = system: HepG2 (Hepatocellular Carcinoma); test: Cell viability analysis, hepatic cancer HepG2; type: cell-based, human; details: Homo sapiens, HepG2, 72 h
AsPC-1 = test: Cell viability analysis, pancreatic cancer AsPC-1; type: cell-based, human; details: Homo sapiens, ASPC1, 72 h; AsPC-1; repeated experiment; read-out: The results of antibiotic drug inhibiting cancer cell lines (cell viability analysis), AsPC-1
T24 = test: Cell viability analysis, bladder cancer T24; type: cell-based, human; details: Homo sapiens, T-24, 72 h; T24; repeated experiment; read-out: The results of antibiotic drug inhibiting cancer cell lines (cell viability analysis), T24
U-2OS = test: Cell viability analysis, osteosarcoma U-2OS; type: cell-based, human; details: Homo sapiens, 72 h; U2OS; repeated experiment; read-out: The results of antibiotic drug inhibiting cancer cell lines (cell viability analysis), U2OS
[18] = system: A375 (Amelanotic Melanoma); test: Cell viability analysis, skin cancer A375; type: cell-based, human; details: Homo sapiens, A-375, 72 h

In the case of Cc1ccc2c(Cl)cc(Cl)c(O)c2n1 [Chlorquinaldol], the viability at 10 µM [1] is reported as 43%, the “inhibition effect on different cancer cell lines” value (cancer cell lines) is reported as “significant inhibition effect” and the viability at 10 µM ([2]; MKN-45, repeated experiment, read-out: The results of antibiotic drug inhibiting cancer cell lines (cell viability analysis), MKN-45) is reported as 92.4%. For the same compound, the viability at 10 µM ([2]; drug 10 μM, 72 hours, WST-1, OD450 nm, read-out: cell viability (survival rate), MKN-45) was 75.4%, the viability [3] was 38.5% and the viability at 10 µM ([4]; repeated experiment, read-out: The results of antibiotic drug inhibiting cancer cell lines (cell viability analysis), HeLa) was 64.9%. For the same compound, the viability at 10 µM ([4]; drug 10 μM, 72 hours, WST-1, OD450 nm, read-out: cell viability (survival rate), HeLa) was 42.6%, the viability at 10 µM ([5]; read-out: The results of antibiotic drug inhibiting cancer cell lines (cell viability analysis), LoVo, repeated experiment) was 45.8% and the viability at 10 µM ([5]; read-out: cell viability (survival rate), LoVo, drug 10 μM, 72 hours, WST-1, OD450 nm) was 62.8%. It also gave a viability at 10 µM [6] of 47.5%, a viability at 10 µM ([7]; AGS, repeated experiment, read-out: The results of antibiotic drug inhibiting cancer cell lines (cell viability analysis), AGS) of 53.9% and a viability at 10 µM ([7]; drug 10 μM, 72 hours, WST-1, OD450 nm, read-out: cell viability (survival rate), AGS) of 35.7%. For the same compound, the viability at 10 µM ([8]; TSGH-8301, repeated experiment, read-out: The results of antibiotic drug inhibiting cancer cell lines (cell viability analysis), TSGH-8301) was 87%, the viability at 10 µM ([8]; drug 10 μM, 72 hours, WST-1, OD450 nm, read-out: cell viability (survival rate), TSGH) was 70.5% and the viability at 10 µM [9] was 65%. The viability at 10 µM ([10]; MCF-7, repeated experiment, read-out: The results of antibiotic drug inhibiting cancer cell lines (cell viability analysis), MCF-7) was 30.2%, the viability at 10 µM ([10]; drug 10 μM, 72 hours, WST-1, OD450 nm, read-out: cell viability (survival rate), MCF7) was 47.8% and the viability at 10 µM [11] was 20.6%. It also gave a viability at 10 µM [12] of 64.8%, a viability at 10 µM ([13]; H1650, repeated experiment, read-out: The results of antibiotic drug inhibiting cancer cell lines (cell viability analysis), H1650) of 75.2% and a viability at 10 µM ([13]; drug 10 μM, 72 hours, WST-1, OD450 nm, read-out: cell viability (survival rate), H1650) of 59.6%. For the same compound, the viability at 10 µM (NIH: OVCAR-3) was 78.1%, the viability at 10 µM ([14]; A549, repeated experiment, read-out: The results of antibiotic drug inhibiting cancer cell lines (cell viability analysis), A549) was 37.8% and the viability at 10 µM ([14]; drug 10 μM, 72 hours, WST-1, OD450 nm, read-out: cell viability (survival rate), A549) was 54.5%. The viability at 10 µM [15] was 105%, the viability at 10 µM (TOV-21G) was 40.1% and the viability at 10 µM [16] was 41.8%. For the same compound, the viability at 10 µM ([17]; HepG2, repeated experiment, read-out: The results of antibiotic drug inhibiting cancer cell lines (cell viability analysis), HepG2) was 82%, the viability at 10 µM ([17]; drug 10 μM, 72 hours, WST-1, OD450 nm, read-out: cell viability (survival rate), HepG2) was 82.3% and the viability at 10 µM (AsPC-1) was 62.8%. For the same compound, the viability at 10 µM (T24) was 50.6%, the viability at 10 µM (U-2OS) was 32.4% and the viability at 10 µM ([18]; A375, repeated experiment, read-out: The results of antibiotic drug inhibiting cancer cell lines (cell viability analysis), A375) was 35.5%. The viability at 10 µM ([18]; drug 10 μM, 72 hours, WST-1, OD450 nm, read-out: cell viability (survival rate), A375) was 43%.
